Measured values: patent publication US6737383B1, “Herbicidal oxadiazolidines” (priority 1999, dated 2004)

Tests used:
Details in all cases: Preemergence
surinam grass = assay: Test B pre/postemergence surinam grass; assay type: in vivo, Brachiaria decumbens
Text: (§1) Seeds of bedstraw (Galium aparine), blackgrass (Alopecurus myosuroides), surinam grass (Brachiaria decumbens), cocklebur (Xanthium strumarium), corn (Zea mays), crabgrass (Digitaria sanguinalis), giant foxtail (Setaria faberii), morningglory (Ipomoea hederacea), pigweed (Amaranthus retroflexus), rape (Brassica napus), soybean (Glycine max), sugar beet (Beta vulgaris), velvetleaf (Abutilon theophrasti), wheat (Triticum aestivum), wild oat (Avena fatua) and purple nutsedge (Cyperus rotundus) tubers were planted and treated preemnergence with test chemicals formulated in a non-phytotoxic solvent mixture which included a surfactant.
(§2) At the same time, these crop and weed species were also treated with postemergence applications of test chemicals formulated in the same manner. Plants ranged in height from 2 to 18 cm (1- to 4-leaf stage) for postemergence treatments. Plant species in the flood test consisted of rice (Oryza sativa), smallflower flatsedge (Cyperus difformis), duck salad (Heteranthera limosa) and bamyardgrass (Echinochloa crus-galli) grown to the 2-leaf stage for testing. Treated plants and controls were maintained in a greenhouse for twelve to sixteen days, after which all species were compared to controls and visually evaluated. Plant response ratings, summarized in Table B, are based on a scale of 0 to 10 where 0 is no effect and 10 is complete control. A dash (−) response means no test result.

purple nutsedge = assay: Test B pre/postemergence purple nutsedge; assay type: in vivo, Cyperus rotundus
Text: as §1, §2

blackgrass = assay: Test B pre/postemergence blackgrass; assay type: in vivo, Alopecurus myosuroides
Text: as §1, §2

bedstraw = assay: Test B pre/postemergence bedstraw; assay type: in vivo, Galium aparine
Text: as §1, §2

giant foxtail = assay: Test B pre/postemergence giant foxtail; assay type: in vivo, Setaria faberii
Text: as §1, §2

corn = assay: Test B pre/postemergence corn; assay type: in vivo, Zea mays
Text: as §1, §2

morningglory = assay: Test B pre/postemergence morningglory; assay type: in vivo, Ipomoea hederacea
Text: as §1, §2

pigweed = assay: Test B pre/postemergence pigweed; assay type: in vivo, Amaranthus retroflexus
Text: as §1, §2

soybean = assay: Test B pre/postemergence soybean; assay type: in vivo, Glycine max
Text: as §1, §2

cocklebur = assay: Test B pre/postemergence cocklebur; assay type: in vivo, Xanthium strumarium
Text: as §1, §2

sugar beet = assay: Test B pre/postemergence sugar beet; assay type: in vivo, Beta vulgaris
Text: as §1, §2

wheat = assay: Test B pre/postemergence wheat; assay type: in vivo, Triticum aestivum
Text: as §1, §2

rape = assay: Test B pre/postemergence rape; assay type: in vivo, Brassica napus
Text: as §1, §2

crabgrass = assay: Test B pre/postemergence crabgrass; assay type: in vivo, Digitaria sanguinalis
Text: as §1, §2

velvetleaf = assay: Test B pre/postemergence velvetleaf; assay type: in vivo, Abutilon theophrasti
Text: as §1, §2

wild oat = assay: Test B pre/postemergence wild oat; assay type: in vivo, Avena fatua
Text: as §1, §2

[1] = Rate 62 g/ha, scale of 0 to 10 where 0 is no effect and 10 is complete control
[2] = Rate 125 g/ha, scale of 0 to 10 where 0 is no effect and 10 is complete control
[3] = Rate 250 g/ha, scale 0 (no effect) to 10 (complete control)
[4] = Rate 500 g/ha, scale 0 to 10 (0 no effect, 10 complete control)

CC(C)N(C(=O)n1oc(=O)n(C(C)C2=NOCC2)c1=O)c1ccc(F)cc1F (racemic) [Compound 730]
9: B. signalgrass plant response rating (surinam grass; [4]) | Plant response rating, Blackgrass (blackgrass; [2]) | Corn plant response rating (corn; [4]) | Plant response rating, Redroot pigweed (pigweed; [2]) | Crabgrass plant response rating (crabgrass; [1]) | Plant response rating, Crabgrass (crabgrass; [2]) | Crabgrass plant response rating (crabgrass; [3]) | Wild oats plant response rating (wild oat; [4])
0: B. signalgrass plant response rating (surinam grass; [1]) | Plant response rating, B. signalgrass (surinam grass; [2]) | Nutsedge plant response rating (purple nutsedge; [1]) | Plant response rating, Nutsedge (purple nutsedge; [2]) | Bedstraw plant response rating (bedstraw; [1]) | Plant response rating, Bedstraw (bedstraw; [2]) | Bedstraw plant response rating (bedstraw; [3]) | Corn plant response rating (corn; [1]) | Morningglory plant response rating (morningglory; [1]) | Plant response rating, Morningglory (morningglory; [2]) | Morningglory plant response rating (morningglory; [3]) | Soybean plant response rating (soybean; [1]) | Plant response rating, Soybean (soybean; [2]) | Cocklebur plant response rating (cocklebur; [1]) | Plant response rating, Cocklebur (cocklebur; [2]) | Cocklebur plant response rating (cocklebur; [3]) | Cocklebur plant response rating (cocklebur; [4]) | Sugarbeets plant response rating (sugar beet; [1]) | Wheat plant response rating (wheat; [1]) | Plant response rating, Wheat (wheat; [2]) | Wheat plant response rating (wheat; [3]) | Wheat plant response rating (wheat; [4]) | Rape plant response rating (rape; [1]) | Plant response rating, Rape (rape; [2]) | Velvetleaf plant response rating (velvetleaf; [1]) | Wild oats plant response rating (wild oat; [1])
3: Nutsedge plant response rating (purple nutsedge; [3]) | Nutsedge plant response rating (purple nutsedge; [4]) | Plant response rating, Corn (corn; [2]) | Soybean plant response rating (soybean; [4])
6: Blackgrass plant response rating (blackgrass; [1]) | Redroot pigweed plant response rating (pigweed; [1]) | Velvetleaf plant response rating (velvetleaf; [3]) | Velvetleaf plant response rating (velvetleaf; [4])
2: Morningglory plant response rating (morningglory; [4]) | Soybean plant response rating (soybean; [3]) | Plant response rating, Sugarbeets (sugar beet; [2]) | Rape plant response rating (rape; [3]) | Plant response rating, Velvetleaf (velvetleaf; [2])
4: Bedstraw plant response rating (bedstraw; [4]) | Corn plant response rating (corn; [3]) | Sugarbeets plant response rating (sugar beet; [3]) | Plant response rating, Wild oats (wild oat; [2])
7: B. signalgrass plant response rating (surinam grass; [3]) | Sugarbeets plant response rating (sugar beet; [4]) | Rape plant response rating (rape; [4]) | Wild oats plant response rating (wild oat; [3])
10: Blackgrass plant response rating (blackgrass; [3]) | Blackgrass plant response rating (blackgrass; [4]) | Giant foxtail plant response rating (giant foxtail; [1]) | Plant response rating, Giant foxtail (giant foxtail; [2]) | Giant foxtail plant response rating (giant foxtail; [3]) | Giant foxtail plant response rating (giant foxtail; [4]) | Redroot pigweed plant response rating (pigweed; [3]) | Redroot pigweed plant response rating (pigweed; [4]) | Crabgrass plant response rating (crabgrass; [4])
